Measured values reported in the Kinase Knowledgebase extract (Sharma et al. 2016).
pIC50: −log10 of the molar value.

How the values were obtained:
[1] = target: PIK3CD (Human) (UniProt O00329); assay: Assessment of PIK3CD Kinase Activity
[2] = target: PIK3CG (human) (UniProt P48736); assay: Assessment of PIK3CG Kinase Activity
[3] = target: PIK3CA (human) (UniProt P42336); assay: Assessment of PIK3CA Kinase Activity
[4] = target: PIK3CB (Human) (UniProt P42338); assay: Assessment of PIK3CB Kinase Activity
Chain of PIK3CB (Human) (P42338 whole entry, looked up): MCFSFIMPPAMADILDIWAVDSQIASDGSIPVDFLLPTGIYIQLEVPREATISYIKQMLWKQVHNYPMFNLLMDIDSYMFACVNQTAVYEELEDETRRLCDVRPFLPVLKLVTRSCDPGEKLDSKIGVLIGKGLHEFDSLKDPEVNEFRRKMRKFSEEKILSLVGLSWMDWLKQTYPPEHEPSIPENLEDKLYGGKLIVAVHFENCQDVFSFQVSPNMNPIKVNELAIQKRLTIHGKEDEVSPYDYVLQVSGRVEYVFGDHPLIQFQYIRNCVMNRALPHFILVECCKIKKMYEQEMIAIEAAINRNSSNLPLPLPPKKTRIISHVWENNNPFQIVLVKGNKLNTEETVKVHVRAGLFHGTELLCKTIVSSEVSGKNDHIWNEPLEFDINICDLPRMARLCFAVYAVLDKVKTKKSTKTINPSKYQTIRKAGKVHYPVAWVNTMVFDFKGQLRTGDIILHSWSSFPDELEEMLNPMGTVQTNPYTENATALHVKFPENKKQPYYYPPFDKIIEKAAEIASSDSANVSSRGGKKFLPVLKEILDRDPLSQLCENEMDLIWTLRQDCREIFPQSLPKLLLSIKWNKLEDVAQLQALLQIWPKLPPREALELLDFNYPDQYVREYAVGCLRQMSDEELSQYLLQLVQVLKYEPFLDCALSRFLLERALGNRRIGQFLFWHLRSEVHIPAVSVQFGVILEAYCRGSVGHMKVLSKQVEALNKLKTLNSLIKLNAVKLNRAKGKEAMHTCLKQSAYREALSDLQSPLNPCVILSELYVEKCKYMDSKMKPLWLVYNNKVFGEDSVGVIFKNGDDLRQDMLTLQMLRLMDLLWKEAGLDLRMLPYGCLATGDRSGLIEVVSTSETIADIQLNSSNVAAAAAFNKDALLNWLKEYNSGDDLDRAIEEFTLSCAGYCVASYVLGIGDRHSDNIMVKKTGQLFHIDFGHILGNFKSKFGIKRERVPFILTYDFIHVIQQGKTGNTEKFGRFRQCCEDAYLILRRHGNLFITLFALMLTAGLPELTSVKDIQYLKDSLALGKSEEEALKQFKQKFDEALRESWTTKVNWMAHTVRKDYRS

Chain of PIK3CG (human) (P48736 whole entry, looked up): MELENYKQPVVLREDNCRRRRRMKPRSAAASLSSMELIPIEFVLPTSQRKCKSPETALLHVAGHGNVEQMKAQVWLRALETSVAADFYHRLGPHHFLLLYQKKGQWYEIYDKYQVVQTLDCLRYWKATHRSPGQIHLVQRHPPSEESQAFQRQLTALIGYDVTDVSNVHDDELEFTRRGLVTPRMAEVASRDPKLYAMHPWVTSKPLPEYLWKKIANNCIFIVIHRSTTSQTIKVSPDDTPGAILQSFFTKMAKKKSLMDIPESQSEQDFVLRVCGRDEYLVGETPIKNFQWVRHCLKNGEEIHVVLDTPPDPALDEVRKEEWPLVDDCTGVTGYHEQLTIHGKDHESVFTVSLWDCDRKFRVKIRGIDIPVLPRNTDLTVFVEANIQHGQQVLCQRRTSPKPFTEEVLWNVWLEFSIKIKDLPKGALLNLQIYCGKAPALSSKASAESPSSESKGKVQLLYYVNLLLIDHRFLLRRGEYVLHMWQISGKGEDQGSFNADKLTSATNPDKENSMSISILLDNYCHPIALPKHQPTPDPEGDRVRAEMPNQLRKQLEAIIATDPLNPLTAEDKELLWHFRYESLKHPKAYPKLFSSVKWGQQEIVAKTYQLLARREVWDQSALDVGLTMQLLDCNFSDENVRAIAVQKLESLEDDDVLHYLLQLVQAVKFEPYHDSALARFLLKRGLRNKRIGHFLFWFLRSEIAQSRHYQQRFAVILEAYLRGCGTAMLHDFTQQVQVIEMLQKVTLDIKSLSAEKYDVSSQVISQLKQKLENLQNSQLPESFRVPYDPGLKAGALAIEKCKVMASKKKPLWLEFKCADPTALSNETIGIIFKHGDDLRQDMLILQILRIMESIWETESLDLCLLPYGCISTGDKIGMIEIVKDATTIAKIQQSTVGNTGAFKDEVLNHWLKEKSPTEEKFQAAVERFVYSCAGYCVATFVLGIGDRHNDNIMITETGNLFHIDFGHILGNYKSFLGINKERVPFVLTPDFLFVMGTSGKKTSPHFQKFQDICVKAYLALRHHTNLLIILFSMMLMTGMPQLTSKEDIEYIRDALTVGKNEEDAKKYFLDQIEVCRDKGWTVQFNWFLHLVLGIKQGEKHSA
Chain of PIK3CD (Human) (O00329 whole entry, looked up): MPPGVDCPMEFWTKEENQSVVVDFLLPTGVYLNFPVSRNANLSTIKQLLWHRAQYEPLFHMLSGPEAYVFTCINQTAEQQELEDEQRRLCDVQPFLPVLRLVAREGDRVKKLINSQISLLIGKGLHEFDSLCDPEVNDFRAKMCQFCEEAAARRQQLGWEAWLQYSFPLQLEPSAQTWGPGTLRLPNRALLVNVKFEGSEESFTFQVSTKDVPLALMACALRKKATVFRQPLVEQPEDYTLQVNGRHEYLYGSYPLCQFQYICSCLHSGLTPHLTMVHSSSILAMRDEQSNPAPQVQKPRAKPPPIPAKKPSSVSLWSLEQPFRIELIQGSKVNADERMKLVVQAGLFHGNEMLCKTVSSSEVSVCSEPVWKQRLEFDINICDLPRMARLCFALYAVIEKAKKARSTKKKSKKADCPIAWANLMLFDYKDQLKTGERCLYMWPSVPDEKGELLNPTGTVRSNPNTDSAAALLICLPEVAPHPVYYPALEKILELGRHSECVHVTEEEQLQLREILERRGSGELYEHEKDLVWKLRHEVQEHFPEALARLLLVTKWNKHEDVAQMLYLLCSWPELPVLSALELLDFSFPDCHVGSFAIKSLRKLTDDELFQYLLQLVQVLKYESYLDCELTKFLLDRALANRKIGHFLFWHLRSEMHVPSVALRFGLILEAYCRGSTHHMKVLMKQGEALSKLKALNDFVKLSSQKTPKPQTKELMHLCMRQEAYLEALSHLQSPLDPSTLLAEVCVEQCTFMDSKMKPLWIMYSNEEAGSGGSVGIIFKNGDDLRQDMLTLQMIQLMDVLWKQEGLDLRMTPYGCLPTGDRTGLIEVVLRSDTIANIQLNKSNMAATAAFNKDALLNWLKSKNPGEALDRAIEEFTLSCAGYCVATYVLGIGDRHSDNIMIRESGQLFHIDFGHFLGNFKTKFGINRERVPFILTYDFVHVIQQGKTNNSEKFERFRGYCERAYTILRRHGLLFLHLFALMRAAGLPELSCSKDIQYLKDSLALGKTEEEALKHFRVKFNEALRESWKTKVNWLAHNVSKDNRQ
Chain of PIK3CA (human) (P42336 whole entry, looked up): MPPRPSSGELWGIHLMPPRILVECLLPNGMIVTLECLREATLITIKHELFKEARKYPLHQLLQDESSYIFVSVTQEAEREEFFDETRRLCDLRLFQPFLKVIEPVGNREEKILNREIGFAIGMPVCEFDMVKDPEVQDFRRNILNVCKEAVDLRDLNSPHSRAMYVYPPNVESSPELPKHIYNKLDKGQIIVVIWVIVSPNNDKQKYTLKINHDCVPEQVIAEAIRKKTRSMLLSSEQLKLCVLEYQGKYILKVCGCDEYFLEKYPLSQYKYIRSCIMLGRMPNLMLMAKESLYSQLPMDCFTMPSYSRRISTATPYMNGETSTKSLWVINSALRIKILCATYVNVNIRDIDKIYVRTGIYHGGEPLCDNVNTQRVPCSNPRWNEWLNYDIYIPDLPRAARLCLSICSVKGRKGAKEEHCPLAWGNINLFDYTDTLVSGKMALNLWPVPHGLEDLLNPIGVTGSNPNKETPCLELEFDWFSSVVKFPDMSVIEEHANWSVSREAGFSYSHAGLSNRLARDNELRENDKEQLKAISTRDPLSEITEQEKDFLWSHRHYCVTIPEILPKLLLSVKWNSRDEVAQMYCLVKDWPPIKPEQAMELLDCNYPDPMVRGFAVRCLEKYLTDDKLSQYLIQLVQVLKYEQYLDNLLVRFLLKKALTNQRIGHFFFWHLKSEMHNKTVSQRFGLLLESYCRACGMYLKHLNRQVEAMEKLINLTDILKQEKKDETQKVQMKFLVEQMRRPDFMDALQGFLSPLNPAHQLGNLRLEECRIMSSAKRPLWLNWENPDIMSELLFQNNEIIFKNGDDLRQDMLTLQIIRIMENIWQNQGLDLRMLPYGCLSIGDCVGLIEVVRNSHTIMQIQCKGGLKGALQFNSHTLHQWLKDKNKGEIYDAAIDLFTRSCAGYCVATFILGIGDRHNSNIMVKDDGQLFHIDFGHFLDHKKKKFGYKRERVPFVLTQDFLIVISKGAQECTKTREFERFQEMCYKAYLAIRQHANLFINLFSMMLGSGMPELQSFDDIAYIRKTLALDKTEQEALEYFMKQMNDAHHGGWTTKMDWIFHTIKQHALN

SMILES	pIC50 [1]	pIC50 [2]	pIC50 [3]	pIC50 [4]
C[C@H](Nc1nc(N)ncc1C#N)c1cc2cccc(Cl)c2c(=O)n1C1CCCC1	> 7.00	> 7.00	< 5.00	6.00 to 7.00
COc1cc(-c2cccc3cc([C@H](C)Nc4nc(N)ncc4-c4cc(O)cc(F)c4)n(-c4ccccc4)c(=O)c23)ccn1	> 7.00	6.00 to 7.00	< 5.00	< 5.00
C[C@H](Nc1ncnc(Cl)c1[N+](=O)[O-])c1cc2cccc(Cl)c2c(=O)n1-c1ccccc1	6.00 to 7.00	< 5.00	< 5.00	< 5.00
C[C@H](Nc1nc(N)ncc1C(=O)N1CCC1)c1cc2cccc(-c3cnn(C)c3)c2c(=O)n1-c1ccccc1	6.00 to 7.00	> 7.00	< 5.00	< 5.00
C[C@H](Nc1nc(N)ncc1[N+](=O)[O-])c1cc2cccc(Cl)c2c(=O)n1-c1ccccc1	> 7.00	> 7.00	< 5.00	6.00 to 7.00
C[C@H](Nc1cc(Cl)nc(N)n1)c1cc2cccc(Cl)c2c(=O)n1-c1ccccc1	6.00 to 7.00	6.00 to 7.00	< 5.00	< 5.00
COc1cc(-c2cccc3cc([C@H](C)Nc4nc(N)ncc4-c4ccc(F)c(O)c4)n(-c4ccccc4)c(=O)c23)ccn1	> 7.00	> 7.00	< 5.00	< 5.00
COc1cc(-c2cccc3cc([C@H](C)Nc4nc(N)ncc4C(=O)NC4CC4)n(-c4ccccc4)c(=O)c23)ccn1	> 7.00	–	< 5.00	< 5.00
Cc1nc(N)nc(N[C@@H](C)c2cc3cccc(Cl)c3c(=O)n2-c2ccccc2)c1C#N	> 7.00	> 7.00	> 7.00	> 7.00
CC(=O)Nc1cnc(N)nc1N[C@@H](C)c1cc2cccc(Cl)c2c(=O)n1-c1ccccc1	< 5.00	–	< 5.00	< 5.00
C[C@H](Nc1nc(N)ncc1C#N)c1cc2cccc(-c3ccnnc3)c2c(=O)n1C1CC1	> 7.00	6.00 to 7.00	< 5.00	6.00 to 7.00
C[C@H](Nc1nc(N)ncc1NS(C)(=O)=O)c1cc2cccc(Cl)c2c(=O)n1-c1ccccc1	< 5.00	< 5.00	< 5.00	< 5.00
Cc1cc(N[C@@H](C)c2cc3cccc(Cl)c3c(=O)n2-c2ccccc2)nc(N)n1	< 5.00	< 5.00	< 5.00	< 5.00
C[C@H](Nc1cc(N)ncn1)c1cc2cccc(Cl)c2c(=O)n1-c1ccccc1	6.00 to 7.00	–	< 5.00	< 5.00
COc1cc(-c2cccc3cc([C@H](C)Nc4nc(N)ncc4-c4ccccc4)n(-c4ccccc4)c(=O)c23)ccn1	6.00 to 7.00	> 7.00	< 5.00	< 5.00
C[C@H](Nc1nc(Cl)ncc1[N+](=O)[O-])c1cc2cccc(Cl)c2c(=O)n1-c1ccccc1	6.00 to 7.00	–	< 5.00	< 5.00
C[C@H](Nc1nc(N)ncc1C(=O)N1CCC1)c1cc2cccc(Cl)c2c(=O)n1-c1ccccc1	–	> 7.00	< 5.00	< 5.00
COc1cc(-c2cccc3cc([C@H](C)Nc4nc(N)ncc4C(=O)N4CC(F)(F)C4)n(-c4ccccc4)c(=O)c23)ccn1	6.00 to 7.00	6.00 to 7.00	< 5.00	< 5.00
C[C@H](Nc1nc(N)ncc1C#N)c1cc2cccc(C#CCCC(=O)N3CCOCC3)c2c(=O)n1-c1ccccc1	> 7.00	> 7.00	6.00 to 7.00	6.00 to 7.00
C[C@H](Nc1nc(N)ncc1S(C)(=O)=O)c1cc2cccc(Cl)c2c(=O)n1-c1ccccc1	–	6.00 to 7.00	< 5.00	< 5.00
C[C@H](Nc1nc(N)ncc1C#N)c1cc2cccc(Cl)c2c(=O)n1C	6.00 to 7.00	6.00 to 7.00	< 5.00	6.00 to 7.00
COc1cc(-c2cccc3cc([C@H](C)Nc4nc(N)ncc4-c4ccc(O)c(F)c4)n(-c4ccccc4)c(=O)c23)ccn1	> 7.00	> 7.00	< 5.00	< 5.00
C[C@H](Nc1nc(N)ncc1C(=O)N1CC(F)(F)C1)c1cc2cccc(Cl)c2c(=O)n1-c1ccccc1	–	–	< 5.00	< 5.00
COc1cc(-c2cccc3cc([C@H](C)Nc4nc(N)ncc4C#N)n(C4CC4)c(=O)c23)ccn1	> 7.00	> 7.00	6.00 to 7.00	> 7.00
COc1cc(-c2cccc3cc([C@H](C)Nc4nc(N)ncc4C(=O)N4CCOCC4)n(-c4ccccc4)c(=O)c23)ccn1	–	–	< 5.00	< 5.00
C[C@H](Nc1nc(N)ncc1C#N)c1cc2cccc(Cl)c2c(=O)n1-c1ccc(F)cc1	6.00 to 7.00	6.00 to 7.00	< 5.00	< 5.00
COc1ncc(-c2cccc3cc([C@H](C)Nc4nc(N)ncc4C(F)(F)F)n(-c4cccc(F)c4)c(=O)c23)cn1	> 7.00	6.00 to 7.00	< 5.00	< 5.00
C[C@H](Nc1nc(N)ncc1-c1ccccc1)c1cc2cccc(Cl)c2c(=O)n1-c1ccccc1	–	6.00 to 7.00	< 5.00	< 5.00
C[C@H](Nc1cc(Cl)ncn1)c1cc2cccc(Cl)c2c(=O)n1-c1ccccc1	–	–	< 5.00	< 5.00
COc1cc(-c2cccc3cc([C@H](C)Nc4nc(N)ncc4C(=O)N4CCC4)n(-c4ccccc4)c(=O)c23)ccn1	–	> 7.00	< 5.00	< 5.00

Second part, the molecule after the results:

pIC50 [1]	pIC50 [2]	pIC50 [3]	pIC50 [4]	SMILES
> 7.00	6.00 to 7.00	< 5.00	< 5.00	COc1ncc(-c2cccc3cc([C@H](C)Nc4nc(N)ncc4C(F)(F)F)n(-c4ccccc4)c(=O)c23)cn1
> 7.00	> 7.00	6.00 to 7.00	> 7.00	COc1nc(-c2cnc(N)nc2N[C@@H](C)c2cc3cccc(Cl)c3c(=O)n2-c2ccccc2)cs1
> 7.00	> 7.00	6.00 to 7.00	6.00 to 7.00	C[C@H](Nc1nc(N)ncc1C#N)c1cc2cccc(-c3cnc4[nH]ccc4c3)c2c(=O)n1-c1ccccc1
> 7.00	> 7.00	< 5.00	6.00 to 7.00	Cc1ncc(-c2cnc(N)nc2N[C@@H](C)c2cc3cccc(Cl)c3c(=O)n2-c2ccccc2)s1
> 7.00	6.00 to 7.00	< 5.00	< 5.00	COc1cc(-c2cccc3cc([C@@H](C)Nc4nc(N)ncc4C#N)n(-c4ccccc4)c(=O)c23)ccn1
> 7.00	> 7.00	6.00 to 7.00	6.00 to 7.00	CNC(=O)c1cnc(N)nc1N[C@@H](C)c1cc2cccc(-c3ccnc(OC)c3)c2c(=O)n1-c1ccccc1
> 7.00	> 7.00	< 5.00	< 5.00	C[C@H](Nc1nc(N)ncc1C#N)c1cc2cccc(-c3ccnc(O)c3)c2c(=O)n1-c1ccccc1
> 7.00	> 7.00	6.00 to 7.00	< 5.00	COc1cc(-c2cccc3cc([C@H](C)Nc4nc(N)ncc4C(=O)N(C)C)n(-c4ccccc4)c(=O)c23)ccn1
> 7.00	> 7.00	< 5.00	< 5.00	COc1ncc(-c2cccc3nc([C@H](C)Nc4nc(N)ncc4C#N)n(-c4ccccc4)c(=O)c23)cn1
> 7.00	6.00 to 7.00	< 5.00	< 5.00	COc1cncc(-c2cccc3cc([C@H](C)Nc4nc(N)ncc4C#N)n(-c4ccccc4)c(=O)c23)n1
> 7.00	> 7.00	< 5.00	< 5.00	C[C@H](Nc1nc(N)ncc1C#N)c1cc2cccc(Oc3ccccc3)c2c(=O)n1-c1ccccc1
> 7.00	> 7.00	> 7.00	6.00 to 7.00	C[C@H](Nc1nc(N)ncc1C#N)c1cc2cccc(-c3cnc4ccccc4c3)c2c(=O)n1-c1ccccc1
> 7.00	> 7.00	< 5.00	6.00 to 7.00	C[C@H](Nc1nc(N)ncc1C#N)c1cc2cccc(Cl)c2c(=O)n1-c1cccnc1
6.00 to 7.00	> 7.00	< 5.00	< 5.00	C[C@H](Nc1nc(N)ncc1-c1cccnc1)c1cc2cccc(Cl)c2c(=O)n1-c1ccccc1
–	6.00 to 7.00	< 5.00	< 5.00	COc1cnc(-c2cccc3cc([C@H](C)Nc4nc(N)ncc4C#N)n(-c4ccccc4)c(=O)c23)nc1
–	6.00 to 7.00	< 5.00	< 5.00	CCN(C)C(=O)c1cnc(N)nc1N[C@@H](C)c1cc2cccc(-c3ccnc(OC)c3)c2c(=O)n1-c1ccccc1
6.00 to 7.00	> 7.00	< 5.00	< 5.00	COc1cc(-c2cccc3cc([C@H](C)Nc4nc(N)ncc4C(=O)N(C)OC)n(-c4ccccc4)c(=O)c23)ccn1
> 7.00	> 7.00	6.00 to 7.00	6.00 to 7.00	COc1cncc(-c2cccc3cc([C@H](C)Nc4nc(N)ncc4C#N)n(-c4ccccc4)c(=O)c23)c1
–	6.00 to 7.00	< 5.00	< 5.00	COc1cccc2cc([C@H](C)Nc3nc(N)ncc3C#N)n(-c3ccccc3)c(=O)c12
< 5.00	< 5.00	< 5.00	< 5.00	COc1cc(-c2cccc3cc([C@H](C)Nc4nc(N)ncc4C(=O)O)n(-c4ccccc4)c(=O)c23)ccn1
> 7.00	> 7.00	< 5.00	< 5.00	COc1ncc(-c2cccc3cc([C@H](C)Nc4nc(N)ncc4C(N)=O)n(-c4ccccc4)c(=O)c23)cn1
> 7.00	> 7.00	6.00 to 7.00	6.00 to 7.00	Cc1ccc(-c2cccc3cc([C@H](C)Nc4nc(N)ncc4C#N)n(-c4ccccc4)c(=O)c23)cc1
> 7.00	> 7.00	< 5.00	< 5.00	Cc1ncc(-c2cccc3nc([C@H](C)Nc4nc(N)ncc4C#N)n(-c4ccccc4)c(=O)c23)cn1
